Measured values taken from ChEMBL document CHEMBL1201862, “PubChem BioAssay data set” (2004).
Calls of active or inactive are those of the source.

Legend:
[1] = cells
[2] = molecular target: Mitogen-activated protein kinase 10 (Homo sapiens, UniProt P53779); assay: Dose response biochemical screening assay for inhibitors of c-Jun N-Terminal Kinase 3 (JNK3). [Related pubchem assays: 746 ]
[3] = molecular target: Kallikrein-7 (Homo sapiens, UniProt P49862); assay: Fluorescence Intensity-based biochemical primary high throughput dose response assay to identify activators of kallikrein-7 (K7) zymogen.
[4] = cytotoxicity in OVCAR8 ovarian cancer cells, dose response, PAX8 project, cell-based, plate reader, dry powder samples (AID 743197); format: functional; details: OVCAR-8
[5] = NIH:OVCAR-3 ovarian cancer cell cytotoxicity, dose response, PAX8 inhibitor project, plate reader, dry powder samples (AID 743044); format: functional, cell-based
[6] = IGROV1 ovarian cancer cell cytotoxicity, dose response, PAX8 inhibitor project, plate reader, dry powder samples (AID 743043); format: functional, cell-based; details: IGROV-1
[7] = IOSE-T80 ovarian epithelial cell cytotoxicity, dose response, cytotoxicity control for PAX8 inhibitor project, plate reader, dry powder samples (AID 743045); format: functional, cell-based
[8] = molecular target: Paired box protein Pax-8 (Homo sapiens, UniProt Q06710); assay: inhibitors of PAX8-driven TPO luciferase reporter, dose response, RMG-I cells, cherry-pick (AID 687027); format: functional, cell-based;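 further: luciferase reporter driven by Pax8 target thyroperoxidase promoter measured by SteadyGlo luminescence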
[9] = non-specific cell cytotoxicity, dose response, cytotoxicity control for PAX8 inhibitor project, plate reader, dry powder samples (AID 743021); format: functional, cell-based
[10] = molecular target: 14-3-3 protein gamma (Homo sapiens, UniProt P61981); assay: modulators of 14-3-3 gamma client binding – dose response (AID 711); format: functional
[11] = P. falciparum late gametocyte killing, dose response, luminescence (AID 1117278); format: functional, cell-based;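 further: gametocytes exposed to compound for 24 hours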
[12] = Jurkat T cell cytotoxicity, dose response, cytotoxicity control for P. falciparum gametocyte viability project, luminescence (AID 1117277); format: functional, cell-based;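 further: potency reflects loss of cellular ATP meaning fewer viable cells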
[13] = T. cruzi growth inhibition in host cells, dose response, cell-based, plate reader, dry powder, set 2 (AID 652275); format: functional
[14] = cytotoxicity toward NIH3T3 fibroblasts, dose response, counter-screen, cell-based, ATP luminescence, mouse fibroblasts (AID 2010); format: functional;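 further: cells exposed to compound for about 90 hours before reading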
[15] = inhibitors of intracellular T. cruzi replication, confirmation, NIH3T3 host cells, beta-gal luminescence (AID 2044); format: functional, cell-based;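 further: intracellular parasites grown in NIH/3T3 mouse fibroblasts as host cells; luminescent beta-galactosidase reporter signal from transgenic T. cruzi replicating inside host cells; inhibitors lower the luminescence signal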
[16] = tested on: INS1; assay: beta cell apoptosis inhibitors, cytokine rescue, dose response, luminescence, retest (AID 449756); format: functional, cell-based; details: Rattus norvegicus;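 further: cell death triggered by IL-1 beta plus TNF-alpha plus IFN-gamma mixture; protective hits raise ATP signal compared with cytokine alone wells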
[17] = cells; remark: listed apart in the source
[18] = PAX2 cell-based inhibition, dose response, selectivity assay for PAX8 inhibitor project, plate reader, dry powder samples (AID 743048); format: functional;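 further: HEK293 cells carrying a WT1 promoter luciferase reporter driven by expressed Pax2; potency is for inhibition of Pax2 driven reporter signal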
[19] = P. falciparum 3D7-ScDHODH growth inhibitors, dose response, SYBR Green, dry powder samples (AID 1159570); format: functional, cell-based;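 further: parasite growth measured after 72 hours of compound exposure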
[20] = cytotoxicity in COV362 ovarian cancer cells, dose response, cytotoxicity control for PAX8 inhibitor project, cell-based, plate reader, dry powder, SA12 (AID 743144); format: functional
[21] = cytotoxicity dependent on PAX8, dose response, cell-based, plate reader, dry powder (AID 743049); format: functional
[22] = P. falciparum Dd2 growth inhibitors, dose response, SYBR Green, dry powder samples (AID 1159566); format: functional, cell-based;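 further: potency for growth inhibition with lower SYBR green DNA signal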
[23] = cytotoxicity in OVCAR4 cells, dose response, cytotoxicity control for PAX8 inhibitor project, cell-based, plate reader, dry powder, SA11 (AID 743150); format: functional; details: OVCAR-4
[24] = cytotoxicity in COV434 cells, dose response, cytotoxicity control for PAX8 inhibitor project, cell-based, plate reader, dry powder, SA7 (AID 743145); format: functional
[25] = P. falciparum Dd2 growth inhibitors, dose response, SYBR Green, cherry-picked samples (AID 1159567); format: functional, cell-based
[26] = P. falciparum ATP4 D1247Y mutant growth inhibitors, dose response, NITD609-resistant line, SYBR Green, dry powder (AID 1159571); format: functional, cell-based;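 further: parasites synchronized at ring stage by sorbitol before testing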
[27] = PAX5 activity inhibitors, dose response, selectivity assay for PAX8 inhibitor project, cell-based, plate reader, dry powder samples (AID 743047); format: functional;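 further: HEK293 cells carrying a Pax5 driven CD19 promoter luciferase reporter; potency of inhibitors that lower reporter luminescence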
[28] = molecular target: Histone-lysine N-methyltransferase NSD2 (Homo sapiens, UniProt O96028); format: biochemical
[29] = HepG2 cell cytotoxicity, dose response, cytotoxicity control, cherry-picks, set 5 (AID 1053118); format: functional, cell-based

Kallikrein-7, sequence (P49862 whole entry): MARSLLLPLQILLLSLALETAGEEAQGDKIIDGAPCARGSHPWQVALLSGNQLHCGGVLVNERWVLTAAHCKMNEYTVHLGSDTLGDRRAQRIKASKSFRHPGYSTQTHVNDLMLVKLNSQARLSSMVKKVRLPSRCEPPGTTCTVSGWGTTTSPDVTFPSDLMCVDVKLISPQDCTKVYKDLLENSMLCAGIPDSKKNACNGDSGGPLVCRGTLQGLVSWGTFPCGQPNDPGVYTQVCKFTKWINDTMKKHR
Mitogen-activated protein kinase 10, sequence (P53779 whole entry): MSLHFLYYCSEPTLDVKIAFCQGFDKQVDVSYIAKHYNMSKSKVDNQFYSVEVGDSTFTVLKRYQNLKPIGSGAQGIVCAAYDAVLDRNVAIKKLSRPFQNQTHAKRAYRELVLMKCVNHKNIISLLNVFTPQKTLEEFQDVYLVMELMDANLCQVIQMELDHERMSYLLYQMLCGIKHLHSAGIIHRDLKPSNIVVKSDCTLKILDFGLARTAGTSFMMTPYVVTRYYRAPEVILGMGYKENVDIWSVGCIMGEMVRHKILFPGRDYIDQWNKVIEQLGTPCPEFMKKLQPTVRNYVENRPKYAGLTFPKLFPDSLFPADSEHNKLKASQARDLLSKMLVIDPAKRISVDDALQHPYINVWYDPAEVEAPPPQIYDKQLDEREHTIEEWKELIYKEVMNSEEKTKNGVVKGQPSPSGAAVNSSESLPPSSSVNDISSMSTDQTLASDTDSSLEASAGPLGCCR
Paired box protein Pax-8, sequence (Q06710 whole entry): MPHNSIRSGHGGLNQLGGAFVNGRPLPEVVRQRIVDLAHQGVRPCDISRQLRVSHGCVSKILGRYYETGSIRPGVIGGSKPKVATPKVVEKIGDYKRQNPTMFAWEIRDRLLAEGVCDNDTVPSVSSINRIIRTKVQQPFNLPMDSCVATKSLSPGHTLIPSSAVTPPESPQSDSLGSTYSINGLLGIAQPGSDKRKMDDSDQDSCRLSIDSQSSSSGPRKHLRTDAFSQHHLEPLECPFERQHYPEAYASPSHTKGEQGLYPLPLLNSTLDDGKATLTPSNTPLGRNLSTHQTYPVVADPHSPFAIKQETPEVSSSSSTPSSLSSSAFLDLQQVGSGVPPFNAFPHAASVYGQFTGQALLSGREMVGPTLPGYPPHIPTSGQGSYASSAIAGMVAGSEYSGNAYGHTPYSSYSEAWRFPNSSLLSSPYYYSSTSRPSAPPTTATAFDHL
Histone-lysine N-methyltransferase NSD2, sequence (O96028 whole entry): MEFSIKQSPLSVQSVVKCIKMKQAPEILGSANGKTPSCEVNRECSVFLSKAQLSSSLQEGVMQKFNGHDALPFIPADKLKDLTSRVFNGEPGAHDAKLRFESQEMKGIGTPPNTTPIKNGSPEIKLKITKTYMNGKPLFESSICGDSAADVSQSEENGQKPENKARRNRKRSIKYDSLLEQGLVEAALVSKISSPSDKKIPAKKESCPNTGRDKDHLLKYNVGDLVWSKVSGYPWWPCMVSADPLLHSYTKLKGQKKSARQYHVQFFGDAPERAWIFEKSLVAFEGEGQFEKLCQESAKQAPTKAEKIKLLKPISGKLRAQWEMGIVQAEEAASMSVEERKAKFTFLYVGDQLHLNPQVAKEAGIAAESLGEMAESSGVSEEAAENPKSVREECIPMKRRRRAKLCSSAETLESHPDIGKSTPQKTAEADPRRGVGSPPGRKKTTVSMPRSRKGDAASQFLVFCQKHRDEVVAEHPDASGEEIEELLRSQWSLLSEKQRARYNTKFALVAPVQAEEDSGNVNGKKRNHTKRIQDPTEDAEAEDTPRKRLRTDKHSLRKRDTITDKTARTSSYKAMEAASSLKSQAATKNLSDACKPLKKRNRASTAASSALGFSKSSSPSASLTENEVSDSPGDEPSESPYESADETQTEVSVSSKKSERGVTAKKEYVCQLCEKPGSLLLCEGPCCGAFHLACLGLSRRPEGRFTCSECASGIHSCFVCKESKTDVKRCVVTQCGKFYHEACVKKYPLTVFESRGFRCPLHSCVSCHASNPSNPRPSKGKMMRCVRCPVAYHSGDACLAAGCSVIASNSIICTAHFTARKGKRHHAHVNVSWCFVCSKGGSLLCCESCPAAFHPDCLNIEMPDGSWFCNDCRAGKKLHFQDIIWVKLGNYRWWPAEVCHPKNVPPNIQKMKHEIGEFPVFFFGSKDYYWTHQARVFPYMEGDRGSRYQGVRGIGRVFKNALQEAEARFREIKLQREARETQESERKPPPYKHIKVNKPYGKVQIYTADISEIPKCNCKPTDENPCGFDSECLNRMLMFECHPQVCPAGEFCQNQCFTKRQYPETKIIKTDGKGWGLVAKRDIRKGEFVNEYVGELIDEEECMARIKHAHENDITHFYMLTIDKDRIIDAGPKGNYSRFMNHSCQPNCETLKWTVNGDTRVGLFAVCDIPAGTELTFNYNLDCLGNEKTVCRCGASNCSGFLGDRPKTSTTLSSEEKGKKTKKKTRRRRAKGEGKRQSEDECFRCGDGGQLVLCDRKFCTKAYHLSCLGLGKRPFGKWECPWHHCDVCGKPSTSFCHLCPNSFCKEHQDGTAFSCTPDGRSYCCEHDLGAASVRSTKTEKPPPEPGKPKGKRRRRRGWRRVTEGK
14-3-3 protein gamma, sequence (P61981 whole entry): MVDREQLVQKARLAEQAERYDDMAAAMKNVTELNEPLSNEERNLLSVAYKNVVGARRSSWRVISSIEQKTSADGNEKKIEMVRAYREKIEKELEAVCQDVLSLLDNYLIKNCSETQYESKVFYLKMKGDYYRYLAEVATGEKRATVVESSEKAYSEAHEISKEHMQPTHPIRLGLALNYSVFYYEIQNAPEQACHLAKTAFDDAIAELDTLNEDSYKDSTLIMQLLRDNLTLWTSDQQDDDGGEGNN

Question: For `CCOC(=O)c1cc2c(=O)n3ccccc3nc2n(CCCOC)/c1=N\C(=O)c1ccncc1`, which AC50 [1] is on record?
Answer: Its AC50 is 8.47 µM (active).

Question: For `COC(=O)c1c(-c2cccs2)csc1NC(=O)CN1CCOCC1`, which IC50 [2] is on record?
Answer: Its IC50 is 55.7 µM (not active).

Question: With `O=C1NC(=O)c2c(NC(=O)C3CCCO3)cccc21` (centres undefined) as the compound, how does the IC50 [2] read?
Answer: The IC50 was 56.2 µM (not active).

Question: For `C=C(C)Cn1c2ccc(NC(=O)NCCc3cccs3)cc2c(=O)n1C`, which EC50 [3] is on record?
Answer: Its EC50 is > 7.72 µM (active).

Question: With `COc1cccc(S(=O)(=O)N2C[C@@H]3N[C@H](C2)[C@@H]3c2ccc(/C=C/c3ccccc3)cc2)c1` as the compound, how does the AC50 [4] read?
Answer: Its AC50 is 48.9 µM (active).

Question: What about the AC50 [5] of the same compound?
Answer: The AC50 was 40.8 µM (active).

Question: And the AC50 [6]?
Answer: Its AC50 is 58 µM (active).

Question: What about the AC50 [7] of the same compound?
Answer: The AC50 was 36.1 µM (active).

Question: What about the AC50 [8] of the same compound?
Answer: Its AC50 is 9.43 µM (active).

Question: And the AC50 [9]?
Answer: The AC50 was 33.7 µM (active).

Question: Which IC50 [10] does the source give for `CCOc1ccc2[nH]c(=O)c(CN(CC3COCCO3)C(=O)C3CC3)cc2c1` (centres undefined) here?
Answer: Its IC50 is > 50 µM (not active).

Question: Which IC50 [11] does the source give for `Cc1nnc(NC(=O)c2ccc(S(=O)(=O)N3CCc4ccccc4C3)cc2)o1` here?
Answer: Its IC50 is > 109 µM (inactive).

Question: And the IC50 [12]?
Answer: Its IC50 is 80.6 µM (inactive).

Question: With `CN(C)C(=O)c1cccc(-c2ccc([C@H]3[C@H](CO)N4CCCCN(C(=O)C5CCC5)C[C@@H]34)cc2)c1` as the compound, how does the AC50 [13] read?
Answer: The AC50 was 0.296 µM (active).

Question: With `CCCOC(=O)c1ccc(-[n+]2c(-c3ccccc3)cc(-c3ccccc3)cc2-c2ccccc2)cc1.[O-][Cl+3]([O-])([O-])[O-]` as the compound, how does the EC50 [14] read?
Answer: Its EC50 is > 60 µM (not active).

Question: What about the EC50 [15] of the same compound?
Answer: Its EC50 is < 0.1 µM (active).

Question: And the AC50 [16]?
Answer: Its AC50 is 1.82 µM (active).

Question: And the IC50 [11]?
Answer: Its IC50 is > 109 µM (inactive).

Question: And the IC50 [12]?
Answer: The IC50 was 6.87 µM (active).

Question: What about the EC50 [17] of the same compound?
Answer: Its EC50 is 0.1 µM (active).

Question: With `CCCC#Cc1ccc([C@H]2[C@@H](CO)N(C(=O)C3CCCCC3)[C@H]2C#N)cc1` as the compound, how does the AC50 [18] read?
Answer: The AC50 was 26.7 µM (active).

Question: What about the AC50 [19] of the same compound?
Answer: The AC50 was 0.996 µM (active).

Question: And the AC50 [20]?
Answer: The AC50 was 0.0864 nM (active).

Question: And the AC50 [21]?
Answer: Its AC50 is 12.2 µM (active).

Question: And the AC50 [22]?
Answer: Its AC50 is 0.541 µM (active).

Question: What about the AC50 [23] of the same compound?
Answer: The AC50 was 22.8 µM (active).

Question: What about the AC50 [24] of the same compound?
Answer: Its AC50 is 0.000367 µM (active).

Question: What about the AC50 [8] of the same compound?
Answer: The AC50 was 1.55 µM (active).

Question: What about the AC50 [25] of the same compound?
Answer: Its AC50 is 1.42 µM (active).

Question: And the AC50 [26]?
Answer: Its AC50 is 2.55 µM (active).

Question: And the AC50 [27]?
Answer: The AC50 was 19.2 µM (active).

Question: For `CCOc1ccc2[nH]c3c(NCCN(CC)CC)ncnc3c2c1`, which AC50 [28] is on record?
Answer: Its AC50 is 3.43 µM (active).

Question: With `CN1CCN(C(=O)c2cc3nc(-c4ccco4)cc(C(F)(F)F)n3n2)CC1` as the compound, how does the EC50 [3] read?
Answer: Its EC50 is 11.3 µM (inactive).

Question: Which AC50 [29] does the source give for `C[C@H]1CN([C@@H](C)CO)C(=O)c2cc(NC(=O)CCCN(C)C)ccc2O[C@H]1CN(C)Cc1ccc(-c2ccccc2)cc1` here?
Answer: Its AC50 is 44.9 µM (active).
